Measurements published in US7851592B2, “Compositions and methods for inhibiting G2 cell cycle arrest and sensitizing cells to DNA damaging agents” (CanBas Co. Ltd., priority 1999, dated 2010).

What was measured:
hChk1 = target: T1, hChk1 (Homo sapiens, UniProt O14757, I471V); assay: In vitro immune complex kinase assay, Cdc25C phosphorylation by purified hChk1; format: biochemical; conditions: FIG. 1B; peptide 10 μM; substrate 1 μM
T1 construct: made in house; host or cells: insect cells, recombinant baculovirus (lysates provided by Dr. Makoto Nakanishi)
T1 sequence (O14757 1-476 I471V): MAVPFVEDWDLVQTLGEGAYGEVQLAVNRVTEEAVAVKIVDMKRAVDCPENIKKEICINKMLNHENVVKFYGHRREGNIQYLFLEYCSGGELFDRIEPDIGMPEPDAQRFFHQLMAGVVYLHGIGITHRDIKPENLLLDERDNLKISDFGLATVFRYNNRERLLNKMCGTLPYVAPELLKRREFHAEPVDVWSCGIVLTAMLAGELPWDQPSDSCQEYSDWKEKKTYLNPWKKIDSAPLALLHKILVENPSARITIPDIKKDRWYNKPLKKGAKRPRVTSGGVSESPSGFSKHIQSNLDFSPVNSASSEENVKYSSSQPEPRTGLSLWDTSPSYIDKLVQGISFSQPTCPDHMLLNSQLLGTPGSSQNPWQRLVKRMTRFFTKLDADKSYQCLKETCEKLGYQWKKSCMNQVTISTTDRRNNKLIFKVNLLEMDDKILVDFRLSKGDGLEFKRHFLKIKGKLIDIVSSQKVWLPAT
Method: Kinase assay. HA-tagged hChk1 (SEQ ID NO:3) and c-myc-tagged Chk2/HuCds1 (SEQ ID NO:4) expressed in insect cells using recombinant baculovirus (see, e.g., Kaneko (1999) Oncogene 18:3673-3681) were purified by immunoprecipitation using anti-HA or anti-c-myc antibodies and protein G-Sepharose. Immune complex kinase reaction was done in PBS with 1 mM DTT, 1 mM MgCl2 and 100 μCi of [γ-^32P] ATP (Amersham; 6000 Ci/mmol) plus purified 1 μM GST-Cdc25C or 10 μM Cdc25C peptide (amino acid 211 to 221 of Cdc25C (SEQ ID NO: 2); […], Sawady Technology Co.) substrates at 30° C. for 15 min in the presence of 10 μM TAT-S216, TAT-S216A or TAT-Control. After the reaction, samples were separated in 12% or 15% SDS-PAGE and autoradiographed to detect GST-Cdc25C or peptide phosphorylation.
The results are shown in FIG. 1: TAT-S216A and TAT-S216 peptides inhibit hChk1 and Chk2/HuCds1 kinase activities in vitro. FIG. 1A. sequences of the peptides. FIG. 1B, in vitro phosphorylation analysis using GST-Cdc25C and purified hChk1. GST-Cdc25C (amino acid 200-256) that was produced in E. coli (DH5α) was used as substrate (1 μM). Immune complex kinase reaction was done in the presence of TAT-S216A (10 μM) or TAT-S216 (10 μM). FIG. 1C, in vitro phosphorylation analysis of hChk1 and Chk2/HuCds1 using synthesized Cdc25C peptide corresponding amino acid 211-221 of Cdc25C ([…] (SEQ ID NO: 2)) as a substrate (10 μM).

[1] = test system: histone H1 kinase activity; assay: Histone H1 kinase assay on lysates of treated Jurkat cells; format: cell-based, human; conditions: FIG. 2B; bleomycin 10 μg/ml; peptide 10 μM; 6 hr
Method: Histone H1 kinase assay. Ten million Jurkat cells were treated with hydroxyurea (100 μg/ml), bleomycin (10 μg/ml), or colchicine (5 μg/ml) with or without addition of TAT-S216A, TAT-S216 or TAT-Control (10 μM) for 6 hr. The cells were washed in cold PBS and lysed at 4° C. in 1 ml of buffer A (50 mM Tris pH 8, 2 mM DTT, 5 mM EDTA, 100 mM NaCl, 0.5% NP40, 20 mM Na3V04, 50 mM NaF, 4 μM Okadaic acid, 5 μg/ml aprotinin, 5 μg/ml pepstatin A and 5 μg/ml leupeptin.). Twenty microliter of p13^suc1 agarose beads (Upstate Biotechnology., Saranac, N.Y.) were added to the cleared lysates, incubated for 4 hr at 4° C., and washed five times with buffer A without 5 mM EDTA, 20 mM Na3V04, 50 mM NaF, 4 μM Okadaic acid. Histone HI kinase activity on the beads were analyzed by using Cdc2 kinase assay kit (Upstate Biotechnology) with [γ-^32P] ATP, followed by 12% SDS-PAGE electrophoresis, and autoradiographed to detect the phosphorylated Histone H1.
(§1) The cell cycle status of the cells treated with TAT-S216A or TAT-S216 upon the DNA damage-induced G2 arrest was analyzed by FACS analysis. Histone H1 kinase activities of theses cells were simultaneously monitored. […] Results are shown in FIG. 2: abrogation of DNA damage-induced G2 arrest by TAT-S216A and TAT-S216 peptides. FIG. 2A, FACS analysis of Jurkat cells treated with bleomycin and peptides. Cells were treated with bleomycin (10 μg/ml) with or without peptides (10 μM) for 20 hr. B, histone H1 kinase analysis. Cell lysates were prepared from the cells treated with the indicated reagent for 6 hr. Concentrations used were: hydroxyurea (HU), 100 μg/ml; bleomycin (Bleo), 10 μg/ml; colchicine, 5 μg/ml; TAT-S216A and TAT-S216, 10 μM. C, FACS analysis of colchicine -and peptide-treated cells. Jurkat cells were treated with colchicine (5 μg/ml) with or without peptide (10 μM) for 20 hr.

Jurkat cells [2] = assay: Trypan blue dye exclusion analysis of Jurkat cells treated with bleomycin or colchicine with or without peptides; format: cell-based; conditions: FIG. 3A; bleomycin 5 or 10 μg/ml; peptide 10 μM
Method: The effect of TAT-S216A and TAT-S216 on the cell death induced by bleomycin was examined. The results are shown in FIG. 3; Trypan blue dye exclusion analysis of Jurkat cells treated with bleomycin (A) or colchicine (B) with or without indicated peptides. Bars, SD Vertical axis, % viability of the cells; Bleo 5, bleomycin 5 μg/ml; Bleo 10, bleomycin 10 μg/ml; colchicine, 5 μg/ml; TAT-S216 or TAT-S216A, 10 μM of indicated peptide. […] C, survival analysis of PHA blasts treated with bleomycin and peptides. Vertical axis, % viability of the cells determined by trypan blue dye exclusion analysis; horizontal axis, time in hours. Bleo 5, bleomycin 5 μg/ml; Bleo 10, bleomycin 10 μg/ml; TAT-S216 or TAT-S216A, 10 μM of indicated peptide. D, FACS analysis of the cells treated with bleomycin and peptides. PHA-blasts were treated with bleomycin with or without peptides for 20 hr. Vertical axis, cell number; horizontal axis, DNA content indicated by propidium iodide staining.

Jurkat cells [3] = assay: Cell-cycle analysis by FACS, DNA damage-induced G2 arrest; format: cell-based, human; conditions: FIG. 2A; bleomycin 10 μg/ml; peptide 10 μM; 20 hr
Method: Cell-cycle analysis. The cell cycle status of the cells treated with peptides and/or bleomycin or colchicine was analyzed by FACS, as described by Kawabe (1997) Nature 385:454-458. In brief, two million Jurkat cells were re-suspended and incubated in 300 μl Krishan's solution (0.1% Sodium citrate, 50 μg/ml PI, 20 μg/ml RNase A and 0.5% NP-40; see supra) for 1 hr at 4° C. and analyzed by FACScan™ (Beckton Dickinson, Mountain View, Calif.) with the program CELLQuest™ (Beckton Dickinson).
as §1

Jurkat cells [4] = assay: FACS DNA content of bleomycin-treated Jurkat cells with oligopeptides (Example 3); format: cell-based, human; conditions: FIG. 6, bleomycin 20 μg/ml, 0, 6, 12, 24 hours
Method: The cells with the deficient cell cycle G1 checkpoint (such as a human leukemia-derived cell line Jurkat) were treated with a DNA damaging treatment. As the DNA damaging treatment, the cells were treated with bleomycin or other anti-cancer drugs. These drugs were added to the cell culture medium. Alternatively, the cells were irradiated with gamma irradiation. Peptides were added to these cells and the amount of DNA was determined some 10 to 48 hours after the DNA damage. The harvested cells were re-suspended with the solution that includes propidium iodide, RNase and NP-40 and analyzed by flow cytometer. […]
Jurkat cells were cultured in 10% fetal calf serum with a medium (RPMI 1640) at 37° C./5% CO2 with: bleomycin at 20 μg/ml; bleomycin at 20 μg/ml and the peptide “4aa” (amino acid sequence is GGSPSM (SEQ ID NO: 1931)); bleomycin at 20 μg/ml and the peptide AAA (Table 1); bleomycin at 20 μg/ml and the peptide YNP (Table 1). The amount of DNA was analyzed at 0, 6, 12, 24 hours after the addition of ten microgram of bleomycin with or without the oligopeptides “4aa,” “YNP” and “AAA.” The DNA quantity was analyzed by a flow cytometer (FACS) after the addition of a solution comprising propidium iodide, RNase and NP-40. […]

Jurkat cells [5] = assay: FACS DNA content of colchicine-treated Jurkat cells with oligopeptides (Example 3); format: cell-based, human; conditions: FIG. 7; colchicine 2.5 μg/ml
Method: Other screening methods can be used to identify selective inhibitors of the G2 cell cycle checkpoint. For, the cells are simultaneously treated with an oligopeptide “candidate phosphorylation substrate” and an M phase checkpoint activator, such as colchicine or nocodazol. The DNA content of the cells are analyzed some 10 to 48 hours after the treatment as described above.
In another experiment, an M phase checkpoint activator, colchicine, was used instead of bleomycin: colchicine at 2.5 μg/ml; colchicine at 2.5 μg/ml and the peptide “4aa”; colchicine at 2.5 μg/ml and the peptide AAA (Table 1); colchicine at 2.5 μg/ml and the peptide YNP (Table 1), and no treatment.

Row | Substance | phosphorylation of GST-Cdc25C (amino acid 200-256) by baculovirus-produced hChk1 (hChk1) | histone H1 kinase activity on bleomycin treatment in the presence of peptide [1] | effect on bleomycin-induced cell death / viability of bleomycin-treated Jurkat cells (Jurkat cells [2]) | G2 arrest in response to bleomycin (Jurkat cells [3]) | G2 checkpoint / accumulation of bleomycin-treated cells at G2/M (Jurkat cells [4]) | G2 checkpoint / accumulation of bleomycin-treated cells at G2/M (Jurkat cells [4]; listed as YNP) | accumulation of colchicine-treated cells at the G2/M phase (Jurkat cells [5])
1 | TAT-Control: control peptide: TAT domain with Cdc25C portion partially deleted and substituted with glycine (GGRSPAMPE) (YGRKKRRQRRRGGRSPAMPE) | did not inhibit | did not affect | did not affect the viability | arrested at G2 similarly to the cells treated with bleomycin alone | – | – | –
2 | Y G G P G G G G N (YGGPGGGGN) [YPN] | – | – | – | – | specifically abrogated the cell cycle at the G2 checkpoint | abrogated the G2 checkpoint | None of the above tested oligopeptides (Table 1), including, YPN, affected the accumulation
